{
  "source": "patent US6500840B2",
  "about": "“Quinuclidine-substituted heteroaryl moieties for treatment of disease” (Pharmacia & Upjohn Company, priority 2000, dated 2002)",
  "note": "“And” between values parts separate entries of the source, which are not always exact repeats. Identical values can stand only once. Counter-ions that a name gives are not always drawn.",
  "data": [
    {"biological_target": "α7 nAChR (Rattus norvegicus, UniProt Q05941)", "sequence (Q05941 23-502)": "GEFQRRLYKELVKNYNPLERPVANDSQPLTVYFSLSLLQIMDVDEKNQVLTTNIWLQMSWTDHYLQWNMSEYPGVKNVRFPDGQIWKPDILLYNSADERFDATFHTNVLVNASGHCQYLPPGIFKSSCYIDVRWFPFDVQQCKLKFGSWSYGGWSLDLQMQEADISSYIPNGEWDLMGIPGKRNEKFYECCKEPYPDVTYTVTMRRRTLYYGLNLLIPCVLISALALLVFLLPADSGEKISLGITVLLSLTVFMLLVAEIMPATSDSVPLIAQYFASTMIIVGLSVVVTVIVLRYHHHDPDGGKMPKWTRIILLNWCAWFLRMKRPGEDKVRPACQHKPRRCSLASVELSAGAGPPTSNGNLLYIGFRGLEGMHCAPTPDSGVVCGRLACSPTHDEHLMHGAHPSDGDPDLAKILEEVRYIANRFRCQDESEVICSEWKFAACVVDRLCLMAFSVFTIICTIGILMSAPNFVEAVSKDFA", "test": "[3H]-MLA competition binding assay, rat brain membranes", "settings": "not given", "units": {"Ki": "nM"}, "values": [
      {"smiles": "O=C(N[C@H]1CN2CCC1CC2)c1ccc(Sc2ccc(F)c(Cl)c2)s1", "note": "[Example 36, N-[(3R)-1-azabicyclo[2.2.2]oct-3-yl]-5-(3-chloro-4-fluorophenylsulfanyl)-thiophene-2-carboxamide]", "Ki": "110 to 115"}
    ]},
    {"biological_target": "α7 nAChR (Rattus norvegicus, UniProt Q05941)", "test": "[3H]-MLA competition binding assay, rat brain membranes", "settings": "Ki, inhibition of [3H]-MLA binding (3.0 to 4.0 nM), Sprague-Dawley rat whole brain minus cerebellum homogenate, 1 hour at 25° C", "values": [
      {"smiles": "COc1cccc(-c2cnc(C(=O)N[C@H]3CN4CCC3CC4)o2)c1", "note": "[Example 80, N-[(3R)-1-azabicyclo[2.2.2]oct-3-yl]-5-(3-methoxyphenyl)-1,3-oxazole-2-carboxamide 4-methylbenzenesulfonate]", "Ki": "50 to 60 nM"},
      {"smiles": "O=C(N[C@H]1CN2CCC1CC2)c1ccc(Sc2cccc(Cl)c2)s1", "note": "[Example 35, N-[(3R)-1-azabicyclo[2.2.2]oct-3-yl]-5-(3-chlorophenyl-sulfanyl)-thiophene-2-carboxamide]", "Ki": "30 to 50 nM"},
      {"smiles": "COc1ccc(-c2cnc(C(=O)N[C@H]3CN4CCC3CC4)o2)cc1", "note": "[Example 82, N-[(3R)-1-azabicyclo[2.2.2]oct-3-yl]-5-(4-methoxyphenyl)-1,3-oxazole-2-carboxamide 4-methylbenzenesulfonate]", "Ki": "115 to 125 nM"},
      {"smiles": "O=C(N[C@H]1CN2CCC1CC2)c1ccc(-c2ccccc2[N+](=O)[O-])s1", "note": "[Example 6, N-[(3R) 1-azabicyclo[2.2.2]oct-3-yl]-5-(2-nitrophenyl)-thiophene-2-carboxamide hydrochloride]", "Ki": "5 to 10 nM"},
      {"smiles": "O=C(N[C@H]1CN2CCC1CC2)c1ccc(-c2ccccc2Cl)o1", "note": "[Example 104, N-((3R)-1-azabicyclo[2.2.2]oct-3-yl]-5-(2-chlorophenyl)-furan-2-carboxamide toluene sulfonate]", "Ki": "20 to 130 nM and 75 nM"},
      {"smiles": "O=C(N[C@H]1CN2CCC1CC2)c1ccc(-c2ccc([N+](=O)[O-])cc2)o1", "note": "[Example 112, N-[(3R)-1-azabicyclo[2.2.2]oct-3-yl]-5-(4-nitrophenyl)-furan-2-carboxamide 4-methylbenzenesulfonate]", "Ki": "5 to 24 nM"},
      {"smiles": "COc1ccc(-c2ccc(C(=O)N[C@H]3CN4CCC3CC4)o2)cc1", "note": "[Example 134, N-[(3R)-1-azabicyclo[2.2.2]oct-3-yl]-5-(4-methoxy-phenyl)-furan-2-carboxamide hydrochloride]", "Ki": "60 to 100 nM"},
      {"smiles": "Cn1c(C(=O)N[C@H]2CN3CCC2CC3)ccc1-c1ccccc1", "note": "[Example 152, N-[(3R)-1-Azabicyclo[2.2.2]oct-3-yl]-1-methyl-5-phenyl-1H-pyrrole-2-carboxamide]", "Ki": "20 to 65 nM"},
      {"smiles": "O=C(N[C@H]1CN2CCC1CC2)c1ncc(-c2ccccc2Cl)s1", "note": "[Example 94, N-[(3R)-1-azabicyclo[2.2.2]oct-3-yl]-5-(2-chlorophenyl)-1,3-thiazole-2-carboxamide 4-methylbenzenesulfonate]", "Ki": "125 nM"},
      {"smiles": "COc1cccc(-c2cnc(C(=O)N[C@H]3CN4CCC3CC4)s2)c1", "note": "[Example 93, N-[(3R)-1-azabicyclo[2.2.2]oct-3-yl]-5-(3-methoxyphenyl)-1,3-thiazole-2-carboxamide 4-methylbenzenesulfonate]", "Ki": "40 to 45 nM"},
      {"smiles": "Nc1ccccc1-c1ccc(C(=O)N[C@H]2CN3CCC2CC3)s1", "note": "[Example 12, 5-(2-Aminophenyl)-N-[(3R)-1-azabicyclo[2.2.2]oct-3-yl]-thiophene-2-carboxamide]", "Ki": "45 to 75 nM"},
      {"smiles": "O=C(N[C@H]1CN2CCC1CC2)c1ccc(Cl)s1", "note": "[Example 23, N-[(3R)-1-azabicyclo[2.2.2]oct-3-yl]-5-chloro-thiophene-2-carboxamide]", "Ki": "6 to 10 nM"},
      {"smiles": "O=C(N[C@H]1CN2CCC1CC2)c1ccc(Br)s1", "note": "[Example 26, N-[(3R)-1-azabicyclo[2.2.2]oct-3-yl]-5-bromo-thiophene-2-carboxamide]", "Ki": "5 to 20 nM"},
      {"smiles": "O=C(N[C@H]1CN2CCC1CC2)c1ccc(-c2ccc(F)c(F)c2)o1", "note": "[Example 132, N-[(3R)-1-azabicyclo[2.2.2]oct-3-yl]-5-(3,4-difluorophenyl)-furan-2-carboxamide hydrochloride]", "Ki": "875 to 2080 nM"},
      {"smiles": "O=C(N[C@H]1CN2CCC1CC2)c1ccc(-c2ccccc2)s1", "note": "[Example 1, N-[(3R)-1-Azabicyclo[2.2.2]oct-3-yl]-5-phenyl-thiophene-2-carboxamide Hydrochloride]", "Ki": "13 to 33 nM"},
      {"smiles": "O=C(N[C@H]1CN2CCC1CC2)c1ccc(-c2ccsc2)s1", "note": "[Example 5, N-[(3R)-1-azabicyclo[2.2.2]oct-3-yl]-2,3′-bithiophene-5-carboxamide hydrochloride]", "Ki": "9 to 15 nM"},
      {"smiles": "O=C(N[C@H]1CN2CCC1CC2)c1ccc(-c2ccccc2Cl)s1", "note": "[Example 4, N-[(3R)-1-azabicyclo[2.2.2]oct-3-yl]-5-(2-chlorophenyl)-thiophene-2-carboxamide hydrochloride]", "Ki": "60 to 73 nM"},
      {"smiles": "O=C(N[C@H]1CN2CCC1CC2)c1ncc(-c2ccc(F)cc2)o1", "note": "[Example 85, N-[(3R)-1-azabicyclo[2.2.2]oct-3-yl]-5-(4-fluorophenyl)-1,3-oxazole-2-carboxamide 4-methylbenzenesulfonate]", "Ki": "30 to 40 nM"},
      {"smiles": "NCc1ccc(C(=O)N[C@H]2CN3CCC2CC3)s1", "note": "[Example 17, 5-(Aminomethyl)-N-[(3R)-1-azabicyclo[2.2.2]oct-3-yl]-thiophene-2-carboxamide Dihydrochloride]", "Ki": "260 to 385 nM"},
      {"smiles": "O=C(N[C@H]1CN2CCC1CC2)c1cc(-c2ccccc2)cs1", "note": "[Example 8, N-[(3R)-1-azabicyclo[2.2.2]oct-3-yl]4-phenyl-thiophene-2-carboxamide hydrochloride]", "Ki": "46 nM"},
      {"smiles": "O=C(N[C@H]1CN2CCC1CC2)c1ccc(-c2ccccc2O)s1", "note": "[Example 41, N-[(3R)-1-Azabicyclo[2.2.2]oct-3-yl]-5-(2-hydroxyphenyl)-thiophene-2-carboxamide Hydrochloride]", "Ki": "34 nM"},
      {"smiles": "CC(C)(C)c1ccc(-c2ccc(C(=O)N[C@H]3CN4CCC3CC4)o2)cc1", "note": "[Example 140, N-[(3R)-1-azabicyclo[2.2.2]oct-3-yl]-5-(4-tert-butylphenyl)-furan-2-carboxamide 4-methylbenzenesulfonate]", "Ki": "35 to 65 nM"},
      {"smiles": "COc1cccc(-c2ccc(C(=O)N[C@H]3CN4CCC3CC4)o2)c1", "note": "[Example 119, N-[(3R)-1-azabicyclo[2.2.2]oct-3-yl]-5-(3-methoxyphenyl)-furan-2-carboxamide 4-methylbenzenesulfonate]", "Ki": "415 to 560 nM"},
      {"smiles": "Cc1ccccc1-c1ccc(C(=O)N[C@H]2CN3CCC2CC3)o1", "note": "[Example 135, N-[(3R)-1-azabicyclo[2.2.2]oct-3-yl]-5-(2-methylphenyl)-furan-2-carboxamide 4-methylbenzenesulfonate]", "Ki": "16 to 45 nM"},
      {"smiles": "O=C(N[C@H]1CN2CCC1CC2)c1ccc(Sc2ccc(Cl)cc2)s1", "note": "[Example 33, N-[(3R)-1-Azabicyclo[2.2.2]oct-3-yl]-5-(4-chlorophenylsulfanyl)-thiophene-2-carboxamide]", "Ki": "27 nM"},
      {"smiles": "O=C(N[C@H]1CN2CCC1CC2)c1ccc(-c2cccc(Cl)c2)s1", "note": "[Example 3, N-[(3R)-1-azabicyclo[2.2.2]oct-3-yl]-5-(3-chlorophenyl)-thiophene-2-carboxamide hydrochloride]", "Ki": "95 to 157 nM"},
      {"smiles": "O=C(N[C@H]1CN2CCC1CC2)c1ncc(-c2cccc(Cl)c2)s1", "note": "[Example 99, N-[(3R)-1-azabicyclo[2.2.2]oct-3-yl]-5-(3-chlorophenyl)-1,3-thiazole-2-carboxamide 4-methylbenzenesulfonate]", "Ki": "310 to 325 nM"},
      {"smiles": "O=C(N[C@H]1CN2CCC1CC2)c1ccc(-c2cccc([N+](=O)[O-])c2)s1", "note": "[Example 7, N-[(3R)-1-azabicyclo[2.2.2]oct-3-yl]-5-(3-nitrophenyl)-thiophene-2-carboxamide]", "Ki": "25 to 30 nM"}
    ]}
  ]
}
